Data taken from publication PMC2632993, “Conformational changes in α7 acetylcholine receptors underlying allosteric modulation by divalent cations” (BMC Pharmacology, 2009).
One block for each compound: values may come before it.

Legend:
Type in all cases: cell-based, chick
[1] = target: T1, α7 AChR E^172C mutant (C^115A/L^247T background) (Gallus gallus, UniProt P22770, C138A/E195C/L270T); assay: ACh dose-response, two-electrode voltage clamp in Xenopus oocytes; settings: co-expression with human RIC-3
Text: (§1) A cDNA clone of the chick α7 receptor containing two mutations (C^115A, L^247T) was used as the parental phenotype for mutations described in this study. We mutated the lone unpaired cysteine in the extracellular domain (C^115) to alanine to allow for a more straightforward interpretation of thiol modification experiments. […] We included the mutation of leucine 247 in the M2 transmembrane domain (L^247T; L9'T) because of its large current amplitudes and non-desensitizing kinetics compared to wild-type α7 receptors. […] All mutations were introduced by site-directed mutagenesis using the QuikChange method (Agilent Technologies, La Jolla, CA) as described previously, and were confirmed by DNA sequencing.
(§2) cRNA was prepared using the T7 RNA polymerase and mMessage mMachine kit as described by the manufacturer (Applied Biosystems, Austin, TX). Oocytes were surgically removed and prepared from female Xenopus laevis in accordance with UNC Institutional Animal Care and Use Committee guidelines. Oocytes were injected with 20 ng of cRNA and incubated at 18°C in ND96 (96 mM NaCl, 2 mM KCl, 1 mM MgCl2, 1.8 mM CaCl2, 5 mM Na pyruvate, 50 μg/ml gentamicin, 5 mM HEPES, pH 7.5) for 2–5 days before use. For some mutants we co-injected cRNA encoding the human RIC-3 [38], a protein shown to enhance expression of α7 AChRs in both mammalian cells and oocytes.
(§3) Oocytes were superfused in normal extracellular solution containing a reduced Ca^2+ concentration (ESLC; 96 mM NaCl, 2 mM KCl, 1 mM MgCl2, 0.1 mM CaCl2, and 10 mM HEPES, pH 7.5). […] Two-electrode voltage clamp was performed with a GeneClamp 500B controlled by pCLAMP8 software (Molecular Devices, Sunnyvale, CA). Electrodes were filled with 3 M KCl contacting Ag-AgCl wires and had resistances of 0.5 to 2.0 MΩ. Currents were recorded at a constant holding potential of -60 mV. Currents were low pass filtered at 50 Hz and sampled at 100 Hz. Agonist dose-response curves were obtained as described previously, and data were fit to the Hill equation using Origin software (Microcal Software, Northampton, MA).
(§4) MTSEA was prepared daily in distilled water and stored on ice. Stock solution was diluted to the appropriate working concentration in ESLC immediately before each application. […] To measure the effect of Ba^2+ on modification rates we pre-applied 10 mM Ba^2+ for 30 seconds prior to co-application of 10 mM Ba^2+ plus MTSEA. […] Kinetic data were analyzed as described previously; rate data were fit to a single exponential to extract a pseudo-first order rate constant; this was divided by the MTSEA concentration used to determine the second order rate constant for thiol modification.

[2] = target: T2, α7 AChR N^170C mutant (C^115A/L^247T background) (Gallus gallus, UniProt P22770, C138A/L270T/N193C); assay: as above; settings: co-expression with human RIC-3
Text: as §1, §2, §3, §4

[3] = target: T3, α7 AChR M^37C mutant (C^115A/L^247T background) (Gallus gallus, UniProt P22770, C138A/L270T/M60C); assay: as above
Text: as §1, §2, §3, §4

[4] = target: T4, α7 AChR E^44C mutant (C^115A/L^247T background) (Gallus gallus, UniProt P22770, C138A/E67C/L270T); assay: as above
Text: as §1, §2, §3, §4

[5] = target: α7 C^115A/L^247T receptor (Gallus gallus, UniProt P22770, C138A/L270T); assay: as above
Text: as §1, §2, §3, §4

[6] = target: T5, α7 AChR N^52C mutant (C^115A/L^247T background) (Gallus gallus, UniProt P22770, C138A/L270T/N75C); assay: as above
Text: as §1, §2, §3, §4

[7] = target: T6, α7 AChR M^40C/E^172Q mutant (C^115A/L^247T background) (Gallus gallus, UniProt P22770, C138A/E195Q/L270T/M63C); assay: as above; settings: co-expression with human RIC-3
Text: as §1, §2, §3, §4

[8] = target: T7, α7 AChR M^40C mutant (C^115A/L^247T background) (Gallus gallus, UniProt P22770, C138A/L270T/M63C)
T7 construct: expressed in transfected cells; host or cells: Xenopus laevis oocytes injected with cRNA
Text: as §1, with “sequencing. […]” for “sequencing.”
Oocytes were superfused in normal extracellular solution containing a reduced Ca^2+ concentration (ESLC; 96 mM NaCl, 2 mM KCl, 1 mM MgCl2, 0.1 mM CaCl2, and 10 mM HEPES, pH 7.5). […] Currents were recorded at a constant holding potential of -60 mV. […]
MTSEA was prepared daily in distilled water and stored on ice. […] Kinetic data were analyzed as described previously; rate data were fit to a single exponential to extract a pseudo-first order rate constant; this was divided by the MTSEA concentration used to determine the second order rate constant for thiol modification.

[9] = target: T1, α7 AChR E^172C mutant (C^115A/L^247T background); assay: MTSEA thiol modification rate (SCAM) from ACh-evoked currents in oocytes; settings: ± standard error
Experimental: (§5) ACh-evoked current amplitudes decreased following brief, repeated exposure to a limiting concentration of MTSEA (5 μM, 15 seconds). To ensure that the modification reactions were complete, all rate measurements included a final prolonged application of ~100-fold higher concentrations of MTSEA (Fig. 3A and 3B, right). Currents measured following this application represent the endpoint of the reaction between MTSEA and receptors. When the same protocol included Ba^2+ pretreatment and co-application with MTSEA (see Methods), the decreases in current amplitudes were slowed but the same endpoint was obtained (Fig. 3B). Normalized current amplitudes were plotted as a function of the cumulative time of exposure to MTSEA, and pseudo first-order rates were extracted from the single-exponential fits (Fig. 3C).
(§6) Figure 3 Barium slows the rate of MTSEA modification at M^37C. Example of experimental paradigm used to assess Ba^2+ effects on modification rates. […] Endpoints of MTSEA modification are determined by prolonged application of 500 μM MTSEA (right). (B) The same protocol, including Ba^2+ pretreatment and co-application with MTSEA. Current traces are truncated in both (A) and (B) between consecutive MTSEA applications; in all cases the currents were allowed to return to baseline prior to the next application of MTSEA ± ACh. (C) Peak current amplitudes from (A) and (B) are normalized and plotted versus total MTSEA exposure time. Data from this single experiment (no error bars) are fitted to a single-exponential decay (solid line) to extract an apparent pseudo first-order rate constant. The pseudo first-order rate constants calculated in this experiment were 0.011 s^-1 and 0.0019 s^-1 for control (A) and +Ba^2+ (B) measurements, respectively. Second-order rate constants are calculated from these values (Figures 4–6; Table 2).
(§7) Oocytes were superfused in normal extracellular solution containing a reduced Ca^2+ concentration (ESLC; 96 mM NaCl, 2 mM KCl, 1 mM MgCl2, 0.1 mM CaCl2, and 10 mM HEPES, pH 7.5). This solution minimized Ca^2+ influx and eliminated Ca^2+-activated chloride currents. Two-electrode voltage clamp was performed with a GeneClamp 500B controlled by pCLAMP8 software (Molecular Devices, Sunnyvale, CA). Electrodes were filled with 3 M KCl contacting Ag-AgCl wires and had resistances of 0.5 to 2.0 MΩ. Currents were recorded at a constant holding potential of -60 mV. Currents were low pass filtered at 50 Hz and sampled at 100 Hz. Agonist dose-response curves were obtained as described previously, and data were fit to the Hill equation using Origin software (Microcal Software, Northampton, MA).
(§8) MTSEA was prepared daily in distilled water and stored on ice. Stock solution was diluted to the appropriate working concentration in ESLC immediately before each application. […] The limiting dose, yielding 20–40% of the maximal MTSEA effect, was identified for each mutant. […] To measure the effect of Ba^2+ on modification rates we pre-applied 10 mM Ba^2+ for 30 seconds prior to co-application of 10 mM Ba^2+ plus MTSEA. This concentration of Ba^2+ is equivalent to an approximate […] for the modulatory effects in both parental and mutant AChRs. Kinetic data were analyzed as described previously; rate data were fit to a single exponential to extract a pseudo-first order rate constant; this was divided by the MTSEA concentration used to determine the second order rate constant for thiol modification.

[10] = target: T7, α7 AChR M^40C mutant (C^115A/L^247T background); assay: as above; settings: ± standard error
Experimental: as §5, §6, §7, §8

[11] = target: T2, α7 AChR N^170C mutant (C^115A/L^247T background); assay: as above; settings: ± standard error
Experimental: as §5, §6, §7, §8

[12] = target: T3, α7 AChR M^37C mutant (C^115A/L^247T background); assay: as above; settings: for pseudo first-order rate constant of MTSEA modification: 5 μM MTSEA, single experiment
Experimental: as §5, §6, §7, §8

[13] = target: T4, α7 AChR E^44C mutant (C^115A/L^247T background); assay: as above
Experimental: as §5, §6, §7, §8

[14] = target: T5, α7 AChR N^52C mutant (C^115A/L^247T background); assay: as above; settings: ± standard error
Experimental: as §5, §6, §7, §8

[15] = target: T6, α7 AChR M^40C/E^172Q mutant (C^115A/L^247T background); assay: as above; settings: ± standard error
Experimental: as §5, §6, §7, §8

[16] = co-expression with human RIC-3, MTSEA + 10 mM Ba^2+ (30 s pre-application)
[17] = co-expression with human RIC-3, MTSEA + ~EC110 ACh
[18] = co-expression with human RIC-3, MTSEA alone
[19] = MTSEA + 10 mM Ba^2+ (30 s pre-application)
[20] = MTSEA + 10 mM Ba^2+ (30 s pre-application), ± standard error
[21] = MTSEA + ~EC110 ACh, ± standard error

Structure (SMILES): CC(=O)OCC[N+](C)(C)C [ACh, acetylcholine chloride]
ACh Imax [1]: 1.3 μA
ACh Imax [2]: 1.7 μA
ACh Imax [3]: 0.92 μA
ACh Imax [4]: 5.4 μA
Hill coefficient of ACh dose-response ([4]; + 10 mM BaCl2): 2.9 ± 0.7
Hill coefficient of ACh dose-response ([4]; -Ba^2+): 1.7 ± 0.2
ACh Imax [5]: 6.9 μA
Hill coefficient of ACh dose-response ([5]; + 10 mM BaCl2): 1.9 ± 0.4
Hill coefficient of ACh dose-response ([5]; -Ba^2+): 2.5 ± 0.2
ACh Imax [6]: 0.34 μA
ACh Imax [7]: 0.7 μA
ACh Imax [8]: 3.0 μA

MTSEA modification rate (second-order rate constant), + Ba^2+ [9, 16]: 7.3 ± 0.3 (6) × 10^3, M^-1 S^-1
MTSEA modification rate (second-order rate constant), + ACh [9, 17]: 3.5 ± 0.1 (5) × 10^3, M^-1 S^-1
MTSEA modification rate (second-order rate constant), control [9, 18]: 15 ± 0.4 (5) × 10^3, M^-1 S^-1
MTSEA modification rate (second-order rate constant), + Ba^2+ [10, 19]: 2.8 ± 0.05 (7) × 10^3, M^-1 S^-1
MTSEA modification rate (second-order rate constant), + ACh ([10]; MTSEA + ~EC110 ACh): 2.2 ± 0.4 (3) × 10^3, M^-1 S^-1
MTSEA modification rate (second-order rate constant), control ([10]; MTSEA alone): 16 ± 0.2 (13) × 10^3, M^-1 S^-1
MTSEA modification rate (second-order rate constant), + Ba^2+ [11, 16]: 3.7 ± 0.06 (9) × 10^3, M^-1 S^-1
MTSEA modification rate (second-order rate constant), + ACh [11, 17]: 5.7 ± 0.1 (7) × 10^3, M^-1 S^-1
MTSEA modification rate (second-order rate constant), control [11, 18]: 3.3 ± .05 (7) × 10^3, M^-1 S^-1
pseudo first-order rate constant of MTSEA modification ([12]; +Ba^2+): 0.0019 s⁻¹
pseudo first-order rate constant of MTSEA modification ([12]; control): 0.011 s⁻¹
MTSEA modification rate (second-order rate constant), + Ba^2+ [12, 20]: 0.40 ± 0.02 (5) × 10^3, M^-1 S^-1
MTSEA modification rate (second-order rate constant), + ACh [12, 21]: 0.30 ± 0.05 (4) × 10^3, M^-1 S^-1
MTSEA modification rate (second-order rate constant), control ([12]; MTSEA alone, ± standard error): 2.4 ± .03 (10) × 10^3, M^-1 S^-1
MTSEA modification rate (second-order rate constant), + Ba^2+ [13, 20]: 9.3 ± 0.1(8) × 10^3, M^-1 S^-1
MTSEA modification rate (second-order rate constant), + ACh [13, 21]: 0.90 ± 0.05 (4) × 10^3, M^-1 S^-1
MTSEA modification rate (second-order rate constant), control ([13]; MTSEA alone, ± standard error): 23 ± 0.7 (4) × 10^3, M^-1 S^-1
MTSEA modification rate in the presence of Ba^2+ compared to that in the presence of ACh ([13]; higher with Ba^2+): ~ 10 fold
MTSEA modification rate (second-order rate constant), + Ba^2+ [14, 19]: 0.26 ± 0.02 (7) × 10^3, M^-1 S^-1
MTSEA modification rate (second-order rate constant), + ACh ([14]; MTSEA + ~EC110 ACh): 1.4 ± 0.04 (7) × 10^3, M^-1 S^-1
MTSEA modification rate (second-order rate constant), control ([14]; MTSEA alone): 0.40 ± .08 (9) × 10^3, M^-1 S^-1
MTSEA modification rate (second-order rate constant), + Ba^2+ [15, 16]: 2.0 ± 0.3 (6) × 10^3, M^-1 S^-1
MTSEA modification rate (second-order rate constant), + ACh [15, 17]: 1.3 ± 0.1 (5) × 10^3, M^-1 S^-1
MTSEA modification rate (second-order rate constant), control [15, 18]: 14 ± 0.5 (5) × 10^3, M^-1 S^-1
Structure (SMILES): CS(=O)(=O)SCCN [MTSEA, 2-aminoethylmethane thiosulfonate]
